Reference: US20030109418A1, “Methods for identifying compounds for inhibition of neoplastic lesions, and pharmaceutical compositions containing such compounds” (priority 1999, published 2003)
Counter-ions that a name gives are not always drawn.

Legend:
K-562 = assay: Growth inhibition, neutral red assay, K-562; type: cell-based; settings: Homo sapiens, K562; HCl salt
Procedure: (§1) Compound I's activity is not confined to activity against colon cancer cell lines or animal models of colon cancer. It has a broad range of anti-neoplastic effects in various neoplastic cell lines. Various types of human cancer cell lines were propagated under sterile conditions in RPMI 1640 medium with 10% fetal bovine serum, 2 mM L-glutamine and sodium bicarbonate. To determine growth inhibitory effects of Compound I, cells were seeded in 96-well plates at a density of 1000 cells per well. Twenty-four hours after plating, the cells were dosed with various concentrations of the free base of Compound I solubilized in DMSO (final concentration 0.1%). The effect of the drug on tumor cell growth was determined using the neutral red cytotoxicity assay following five days of continuous treatment. Neutral red is a dye that is selectively taken up by viable cells by an ATP-dependent transport mechanism.

Molt-4 = assay: Growth inhibition, neutral red assay, Molt-4; type: cell-based; settings: Homo sapiens, HCl salt
Procedure: as §1

HCT-15 = assay: Growth inhibition, neutral red assay, HCT-15; type: cell-based, human; settings: free base, five days
Procedure: as §1

PC-3 = assay: Growth inhibition, neutral red assay, PC-3; type: cell-based, human; settings: free base, five days
Procedure: as §1

UISO-BCA-1 = assay: Growth inhibition, neutral red assay, UISO-BCA-1; type: cell-based, human; settings: free base, five days
Procedure: as §1

NCI-H460 = assay: Growth inhibition, neutral red assay, NCI-H460; type: cell-based, human; settings: free base, five days
Procedure: as §1

28-day study in rats = type: in vivo, rat
[1] = system: HT-29 human colon carcinoma cell line; assay: Growth inhibition, SRB assay, HT-29; type: cell-based; design: Growth Inhibition: key to the marks not given beside the values
UACC375, Melanoma = assay: Growth inhibition, SRB assay, UACC375; type: cell-based; settings: Homo sapiens, UACC-375
Text: (§2) A compound's ability to inhibit tumor cell growth can be measured using the HT-29 human colon carcinoma cell line obtained from ATCC. HT-29 cells have previously been characterized as a relevant colon tumor cell culture model (Fogh, J., and Trempe, G. In: Human Tumor Cells in Vitro, J. Fogh (eds.), Plenum Press, New York, pp. 115-159, 1975). HT-29 cells are maintained in RPMI media supplemented with 5% fetal bovine calf serum (Gemini Bioproducts, Inc., Carlsbad, Calif.) and 2 mm glutamine, and 1% antibiotic-antimycotic in a humidified atmosphere of 95% air and 5% CO2 at 37° C. Briefly, HT-29 cells are plated at a density of 500 cells/well in 96 well microtiter plates and incubated for 24 hours at 37° C. prior to the addition of compound. […] After six days in culture, the cells are fixed by the addition of cold trichloroacetic acid to a final concentration of 10% and protein levels are measured using the sulforhodamine B (SRB) colorimetric protein stain assay as previously described by Skehan, P., Storeng, R., Scudiero, D., Monks, A., McMahon, J., Vistica, D., Warren, J. T., Bokesch, H., Kenney, S., and Boyd, M. R., “New Colorimetric Assay For Anticancer-Drug Screening,” J. Natl. Cancer Inst. […]
(§3) To show the effectiveness of this screening method on various forms of neoplasia, compounds were tested on numerous cell lines. […] The IC50 values were determined by the SRB assay. […]

[2] = system: NRK, Kidney (non ras-transformed); assay: Growth inhibition, SRB assay, NRK; type: cell-based
[3] = system: Bronchial Epithelial Cells; assay: Growth inhibition, SRB assay, bronchial epithelial cells; type: cell-based; settings: Epithelial cell
Text: as §2, §3

[4] = system: PDE4 purified from human colon HT-29 cultured tumor cells; assay: PDE4 inhibition assay; type: biochemical; settings: HT-29 cell enzyme

Row | Structure (SMILES) | GI50 (K-562) [µM] | GI50 (Molt-4) [µM] | GI50 (HCT-15; Homo sapiens, HCT-15, 120 h) [µM] | GI90 μM, HCT-15 (HCT-15) [µM] | GI50 (PC-3; Homo sapiens, PC-3, 120 h) [µM] | GI90 μM, PC-3 (PC-3) [µM] | GI50 (UISO-BCA-1; Homo sapiens, 120 h) [µM] | GI90 μM, UISO-BCA-1 (UISO-BCA-1) [µM] | GI50 (NCI-H460; Homo sapiens, NCI-H460, 120 h) [µM] | GI90 μM, NCI-H460 (NCI-H460) [µM] | organ weight data, 28-day study (28-day study in rats; rats, 2000 mg/kg/day) | clinical observations, 28-day study (28-day study in rats; rats, 50, 500 and 2000 mg/kg/day) | IC50 ([1]; Homo sapiens, HT-29, 144 h, six days, SRB assay, read-out: IC50, growth of HT-29 cells) [µM] | inhibition at 100 µM ([1]; Homo sapiens, HT-29, read-out: Growth-inhibitory activity, % Inhibition at 100 μM) [%] | Growth Inhibition ([1]; qualitative activity profile) | IC50 (UACC375, Melanoma) [µM] | IC50 [2] [µM] | IC50 [3] [µM] | IC50 [4] [µM]
1 | CC1=C(CC(=O)NCc2ccccc2)c2cc(F)ccc2/C1=C\c1ccncc1 [Compound I, (Z)-5-fluoro-2-methyl-(4-pyridylidene)-3-(N-benzyl)indenylacetamide hydrochloride] | 1.8 | 1.6 | 1.7 | 3.0 | 1.7 | 82.5 | 1.5 | 4.7 | 1.9 | 30.0 | statistically significant increase in liver weights | no abnormal clinical observations | – | – | – | – | – | – | –
2 | CC1=C(CC(=O)O)c2cc(F)ccc2/C1=C\c1ccc(S(C)(=O)=O)cc1 [Exisulind, 5-fluoro-2-methyl-1-(p-methylsulfonylbenzylidene)-3-indenylacetic acid] | – | – | – | – | – | – | – | – | – | – | – | – | ~200 | < 50 | ++ | 100 | 180 | 90 | 181
